Measured values taken from patent US20230002361A1, “2H-INDAZOLE DERIVATIVES AND THEIR USE IN THE TREATMENT OF DISEASE” (BIOGEN MA INC., priority 2019, published 2023).
Structures can show the parent of a compound that is named as a salt.

Legend:
MDR1 (P-gp) = target: T1, MDR1 (P-gp) (Homo sapiens, UniProt P08183); experiment: MDR1-MDCK assay (efflux ratio); assay type: in vitro ADME; conditions: human, MDCK-MDR1, 1 μM compound, 120 minutes incubation; read-out: MDR1-MDCK Efflux Ratio; (B-A/A-B)
T1 construct: host or cells: MDCK cells
T1 sequence (P08183 whole entry): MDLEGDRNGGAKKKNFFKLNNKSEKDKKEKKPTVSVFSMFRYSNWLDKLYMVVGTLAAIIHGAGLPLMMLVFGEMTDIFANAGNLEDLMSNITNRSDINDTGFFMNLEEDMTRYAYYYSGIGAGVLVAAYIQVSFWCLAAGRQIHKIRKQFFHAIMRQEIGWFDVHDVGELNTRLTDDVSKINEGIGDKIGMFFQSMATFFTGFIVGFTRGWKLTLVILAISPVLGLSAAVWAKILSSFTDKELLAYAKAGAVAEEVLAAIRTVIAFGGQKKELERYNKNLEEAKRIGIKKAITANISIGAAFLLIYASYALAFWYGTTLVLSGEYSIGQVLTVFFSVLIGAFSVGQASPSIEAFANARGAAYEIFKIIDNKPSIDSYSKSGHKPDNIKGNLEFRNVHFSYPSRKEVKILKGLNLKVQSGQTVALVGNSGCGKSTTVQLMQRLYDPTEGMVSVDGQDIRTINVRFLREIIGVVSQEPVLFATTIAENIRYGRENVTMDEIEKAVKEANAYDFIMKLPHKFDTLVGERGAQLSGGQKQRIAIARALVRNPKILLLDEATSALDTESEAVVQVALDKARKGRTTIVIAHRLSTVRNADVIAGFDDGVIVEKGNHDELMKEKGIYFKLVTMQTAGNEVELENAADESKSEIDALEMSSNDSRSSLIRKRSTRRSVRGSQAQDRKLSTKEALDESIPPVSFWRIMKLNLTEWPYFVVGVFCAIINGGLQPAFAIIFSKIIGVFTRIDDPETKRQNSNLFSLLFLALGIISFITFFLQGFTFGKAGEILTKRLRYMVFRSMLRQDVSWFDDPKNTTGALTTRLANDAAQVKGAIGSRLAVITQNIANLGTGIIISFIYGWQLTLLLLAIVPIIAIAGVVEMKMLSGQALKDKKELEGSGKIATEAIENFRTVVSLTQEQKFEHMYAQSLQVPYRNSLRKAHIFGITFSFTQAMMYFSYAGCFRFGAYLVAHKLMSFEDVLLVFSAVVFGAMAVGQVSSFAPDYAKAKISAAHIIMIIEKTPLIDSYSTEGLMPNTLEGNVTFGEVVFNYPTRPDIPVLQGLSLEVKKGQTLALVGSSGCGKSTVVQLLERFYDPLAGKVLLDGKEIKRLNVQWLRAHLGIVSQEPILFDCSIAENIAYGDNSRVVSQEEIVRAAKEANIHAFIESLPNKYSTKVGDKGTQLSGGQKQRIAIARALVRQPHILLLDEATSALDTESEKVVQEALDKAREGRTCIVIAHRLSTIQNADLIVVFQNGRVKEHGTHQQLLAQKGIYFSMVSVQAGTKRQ
Description: • The assay makes use of human MDR1 transfected MDCK cells (NIH cell line in-licensed from Absorption Systems) • The compounds are tested at 1 μM concentration prepared in transport buffer (Hank's balanced salt solution with HEPES) • MDR1-MDCK cell are cultured for 7 days in 96 well transwell insert plates (Corning). Insert plates are washed before the assay and TEER (Trans epithelial electric resistance) is measured. • These plates are loaded with test compound solution 85 μL for A-B transport and 260 μL for B-A transport in the respective donor compartment.
Mass balance=100×((Vr×Cr^final)+(Vd×Cd^final))/(Vd×CE) • Where: • dCr/dt is the cumulative concentration in the receiver compartment versus time in μM s^−1 • Vr is the volume of the receiver compartment in cm^3 • Vd is the volume of the donor compartment in cm^3 • A is the area of the insert (0.143 cm^2 for 96-well insert) • CE is the estimated experimental concentration (Time=0) of the dosing solution • Cr^final is the concentration of the receiver at the end of the incubation period • Cd^final is the concentration of the donor at the end of the incubation period.

IRAK4 = target: T2, IRAK4 (Homo sapiens, UniProt Q9NWZ3); experiment: IRAK4 MSD Biochemical Assay (1 mM ATP, 2 h); conditions: room temperature, read-out: IRAK4 MSD Biochemical Assay (1 mM ATP, 2 h) IC50
T2 construct: with 0.1 nM IRAK4, 1.6 μM of biotinylated peptide substrate and 10 μM ATP
T2 sequence (Q9NWZ3 1-460): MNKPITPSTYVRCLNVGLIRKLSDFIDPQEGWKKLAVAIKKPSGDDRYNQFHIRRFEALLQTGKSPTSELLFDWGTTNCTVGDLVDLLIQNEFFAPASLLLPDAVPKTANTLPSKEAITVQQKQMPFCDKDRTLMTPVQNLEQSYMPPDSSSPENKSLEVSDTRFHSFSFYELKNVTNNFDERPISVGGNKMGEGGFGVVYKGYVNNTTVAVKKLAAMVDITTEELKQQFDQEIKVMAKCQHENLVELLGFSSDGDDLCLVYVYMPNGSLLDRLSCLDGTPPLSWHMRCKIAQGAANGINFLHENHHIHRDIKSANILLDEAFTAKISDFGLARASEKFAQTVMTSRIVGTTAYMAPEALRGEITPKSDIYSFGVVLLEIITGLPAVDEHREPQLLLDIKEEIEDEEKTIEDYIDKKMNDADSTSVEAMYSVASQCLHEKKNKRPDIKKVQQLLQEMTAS
Description: The 2-hour 10 μM ATP Biochemical Assay employs a MesoScale Detection (MSD) format.
The activity is quenched with 11 μl of 70 mM EDTA, pH 8.
To detect the phosphorylated biotinylated peptide substrate, 30 μl of the quenched reaction mixture is added to equivalent wells of a 384 well streptavidin coated MesoScale plate (Meso Scale Discovery #L21SA-1). After a 1 hour incubation of the plate for 1 hour at room temperature with gentle mixing, the plate wells are washed 3 times with 50 mM Tris, pH 7.5, 150 mM NaCl, 0.02% Tween-20.
A 25 μl volume of 1:500 anti-P-Threonine Rabbit polyclonal Antibody plus 1:500 Goat-anti-Rabbit Sulfo Tag Antibody (Meso Scale Discovery R32AB-1) in 50 mM Tris, pH 7.5, 150 mM NaCl, 0.02% Tween-20 plus 2% BSA is then added to each well. After a 1-hour incubation of the plate for 1 hour at room temperature with gentle mixing, the plate wells are washed, 3 times with 50 mM Tris, pH 7.5, 150 mM NaCl, 0.02% Tween-20. A 40 μl volume of 2×MSD Read Buffer (Meso Scale Discovery R92TC-1) is added to each well, and the plate is read immediately in an MSD Plate Reader (Meso Scale Discovery).
The 2-hour 1 mM ATP IRAK4 Biochemical assay was performed as described above, but with […] IRAK4 and 1 mM ATP.

Compound | efflux ratio at 120 min, 1 μM (MDR1 (P-gp)) | IC50 (IRAK4)
CC(C)Oc1cc2nn(CCC(C)(C)O)cc2cc1C(=O)Nc1ccn(C(F)F)n1 [Example 33, N-(1-(difluoromethyl)-1H-pyrazol-3-yl)-2-(3-hydroxy-3-methylbutyl)-6-isopropoxy-2H-indazole-5-carboxamide] | 8.6 | 4.3 nM
COc1cccc(NC(=O)c2cc(OC)c3nn(C4CCOCC4)cc3c2)n1.Cl [Example 16, 7-Methoxy-N-(6-methoxypyridin-2-yl)-2-(tetrahydro-2H-pyran-4-yl)-2H-indazole-5-carboxamide hydrochloride] | 3 | 211 nM
O=C(Nc1ccn(C(F)F)n1)c1cc2cn(C[C@@H]3CCOC3)nc2nc1OC1CCCC1 (single isomer, unassigned) [Example 117] | 2.6 | 2 nM
Cn1cccc(NC(=O)c2cc3cn(C[C@H]4CCOC4)nc3nc2OC2CCC2)c1=O (single isomer, unassigned) [Example 112] | 8.3 | 3.4 nM
Cn1ccc(NC(=O)c2cc3cn(C45CCC(C)(CC4)OC5)nc3cc2OC2CCC2)n1 [Example 140, 6-cyclobutoxy-N-(1-methyl-1H-pyrazol-3-yl)-2-(1-methyl-2-oxabicyclo[2.2.2]octan-4-yl)-2H-indazole-5-carboxamide] | 0.9 | 0.9 nM
COc1cccc(NC(=O)c2cc3cn(C4CCOC4)nc3cc2OC)n1.O=C(O)C(F)(F)F (stereo not shown) [Example 4, 6-Methoxy-N-(6-methoxypyridin-2-yl)-2-(tetrahydrofuran-3-yl)-2H-indazole-5-carboxamide trifluoroacetate] | 0.4 | 3380 nM
COc1cccc(NC(=O)c2cc3cn(CC4CCOC4)nc3cn2)n1.O=C(O)C(F)(F)F (stereo not shown) [Example 7, N-(6-methoxypyridin-2-yl)-2-((tetrahydrofuran-3-yl)methyl)-2H-pyrazolo[3,4-c]pyridine-5-carboxamide Trifluoroacetate] | 0.6 | 1390 nM
CC(C)Oc1cc2nn(C3CCOCC3)cc2cc1C(=O)Nc1cccc2c1OCC2.Cl [Example 73, N-(2,3-dihydrobenzofuran-7-yl)-6-isopropoxy-2-(tetrahydro-2H-pyran-4-yl)-2H-indazole-5-carboxamide hydrochloride] | 0.7 | 1.8 nM
COc1cccc(NC(=O)c2cc3cn(C4CCOCC4)nc3cc2OC(C)C)n1 [Example 66, 6-Isopropoxy-N-(6-methoxypyridin-2-yl)-2-(tetrahydro-2H-pyran-4-yl)-2H-indazole-5-carboxamide] | 0.9 | 1.4 nM
CC(C)Oc1nc2nn(C[C@H]3CCOC3)cc2cc1C(=O)Nc1ccn(C(F)F)n1 (single isomer, unassigned) [Example 110] | 2.2 | 2.8 nM
CC(C)Oc1cc2nn(CC34COC(C)(C3)C4)cc2cc1C(=O)Nc1cccc(C(F)F)n1.Cl [Example 27, N-(6-(difluoromethyl)pyridin-2-yl)-6-isopropoxy-2-((1-methyl-2-oxabicyclo[2.1.1]hexan-4-yl)methyl)-2H-indazole-5-carboxamide hydrochloride] | 1.3 | 5.4 nM
O=C(Nc1ccn(C(F)F)n1)c1cc2cn(C[C@H]3CCOC3)nc2nc1OC1CCCC1 (single isomer, unassigned) [Example 116] | 2.5 | 3.8 nM
COCCCn1cc2cc(C(=O)Nc3cnn4cccnc34)c(OC(C)C)cc2n1 [Example 35, 6-Isopropoxy-2-(3-methoxypropyl)-N-(pyrazolo[1,5-a]pyrimidin-3-yl)-2H-indazole-5-carboxamide] | 1.1 | 5 nM
COc1cc2nn(C[C@@H]3CCOC3)cc2cc1C(=O)Nc1cccc(C(F)F)n1 (single isomer, unassigned) [Example 19] | 1 | 5.4 nM
Cn1ccc(NC(=O)c2cc3cn(C4CCCOC4)nc3nc2OC2CCC2)n1 (single isomer, unassigned) [Example 130] | – | 1.7 nM
CC(C)Oc1cc2nn(C34COC(C)(C3)C4)cc2cc1C(=O)Nc1cccn(C)c1=O.O=C(O)C(F)(F)F [Example 55, 6-Isopropoxy-N-(1-methyl-2-oxo-1,2-dihydropyridin-3-yl)-2-(1-methyl-2-oxabicyclo[2.1.1]hexan-4-yl)-2H-indazole-5-carboxamide Trifluoroacetate] | 1.2 | –

Further lines, results first:

efflux ratio at 120 min, 1 μM (MDR1 (P-gp)) | IC50 (IRAK4) | Compound
3.4 | 0.4 nM | CC(C)Oc1nc2nn(CCC(C)(C)O)cc2cc1C(=O)Nc1cccc(C(F)F)n1 [Example 32, N-(6-(difluoromethyl)pyridin-2-yl)-2-(3-hydroxy-3-methylbutyl)-6-isopropoxy-2H-pyrazolo[3,4-b]pyridine-5-carboxamide]
0.8 | 0.4 nM | CC(C)Oc1nc2nn(C[C@H]3CCOC3)cc2cc1C(=O)Nc1cccc(C(F)F)n1 (single isomer, unassigned) [Example 106]
1.4 | 0.4 nM | CC(C)Oc1cc2nn(C34COC(C)(C3)C4)cc2cc1C(=O)Nc1cnn2cccnc12 [Example 93, 6-Isopropoxy-2-(1-methyl-2-oxabicyclo[2.1.1]hexan-4-yl)-N-(pyrazolo[1,5-a]pyrimidin-3-yl)-2H-indazole-5-carboxamide]
1 | 0.3 nM | CC(C)Oc1nc2nn(C[C@@H]3CCOC3)cc2cc1C(=O)Nc1cccc(C(F)F)n1 (single isomer, unassigned) [Example 107]
0.9 | 0.5 nM | CC(C)Oc1nc2nn([C@@H]3CCCOC3)cc2cc1C(=O)Nc1cnn2cccnc12 (single isomer, unassigned) [Example 120]
1.7 | 0.6 nM | COCCCn1cc2cc(C(=O)Nc3cccc(C(F)F)n3)c(OC(C)C)nc2n1.Cl [Example 62, N-(6-(difluoromethyl)pyridin-2-yl)-6-isopropoxy-2-(3-methoxsypropyl)-2H-pyrazolo[3,4-b]pyridine-5-carboxamide hydrochloride]
0.5 | 0.1 nM | CC(C)Oc1cc2nn(C34COC(C)(C3)C4)cc2cc1C(=O)Nc1cccc(C(F)F)n1 [Example 88, N-(6-(difluoromethyl)pyridin-2-yl)-6-isopropoxy-2-(1-methyl-2-oxabicyclo[2.1.1]hexan-4-yl)-2H-indazole-5-carboxamide trifluoroacetate]
0.8 | 0.6 nM | COC(C)(C)CCn1cc2cc(C(=O)Nc3cccc(C(F)F)n3)c(OC(C)C)cc2n1.Cl [Example 29, N-(6-(difluoromethyl)pyridin-2-yl)-6-isopropoxy-2-(3-methoxy-3-methylbutyl)-2H-indazole-5-carboxamide hydrochloride]
0.5 | 0.2 nM | CC(C)Oc1cc2nn([C@@]34CC[C@@](C)(C3)OC4)cc2cc1C(=O)Nc1cccc(C(F)F)n1 (single isomer, unassigned) [Example 126]
– | 1.2 nM | CC(C)Oc1cc2nn(C34CCC(C)(C3)OC4)cc2cc1C(=O)Nc1cnn2cc(F)cnc12 (stereo not shown) [Example 100, N-(6-fluoropyrazolo[1,5-a]pyrimidin-3-yl)-6-isopropoxy-2-(1-methyl-2-oxabicyclo[2.2.1]heptan-4-yl)-2H-indazole-5-carboxamide]
